From patent US8481539B2, “Alkynylaryl compounds and salts thereof, pharmaceutical compositions comprising same, methods of preparing same and uses of same” (Bayer Intellectual Property GmbH, priority 2007, dated 2013)

Assays:
Tie-2 = target: T1, Tie-2 (Homo sapiens, UniProt Q02763); test: Tie-2-Kinase HTRF-Assay (assay 2); type: biochemical; settings: pIC50 class; 10 μM ATP; read-out: Enzymatic Tie 2 activity (assay 2)
T1 construct: fusion protein of GST and the intracellular domains of Tie-2; GST; made in house; host or cells: insect cells (Hi-5)
Description: Tie2-inhibitory activity of compounds of the present invention was quantified employing two Tie2 HTRF assay as described in the following paragraphs.
A recombinant fusion protein of GST and the intracellular domains of Tie-2, expressed in insect cells (Hi-5) and purified by Glutathion-Sepharose affinity chromatography was used as kinase. Alternatively, commercially available GST-Tie2-fusion protein (Upstate Biotechnology, Dundee, Scotland) can be used As substrate for the kinase reaction the biotinylated peptide biotin-Ahx-EPKDDAYPLYSDFG (C-terminus in amid form) was used which can be purchased e.g. from the company Biosynthan GmbH (Berlin-Buch, Germany). Detection of phosphorylated product is achieved specifically by a trimeric detection complex consisting of the phosphorylated substrate, streptavidin-XLent (SA-XLent) which binds to biotin, and Europium Cryptate-labeled anti-phosphotyrosine antibody PT66 which binds to phosphorylated tyrosine.
Tie-2 (3.5 ng/measurement point) was incubated for 60 min at 22° C. in the presence of 10 μM adenosine-tri-phosphate (ATP) and 1 μM substrate peptide (biotin-Ahx-EPKDDAYPLYSDFG-NH2) with different concentrations of test compounds (0 μM and concentrations in the range 0.001-20 μM) in 5 μl assay buffer [50 mM Hepes/NaOH pH 7, 10 mM MgCl2, 0.5 mM MnCl2, 1.0 mM dithiothreitol, 0.01% NP40, protease inhibitor mixture (“Complete w/o EDTA” from Roche, 1 tablet per 2.5 ml), 1% (v/v) dimethylsulfoxide]. The reaction was stopped by the addition of 5 μl of an aqueous buffer (25 mM Hepes/NaOH pH 7.5, 0.28% (w/v) bovine serum albumin) containing EDTA (90 mM) and the HTRF (Homogeneous Time Resolved Fluorescence) detection reagents streptavidine-XLent (0.2 μM, from Cis Biointemational, Marcoule, France) and PT66-Eu-Chelate (0.3 ng/μl; a europium-chelate labelled anti-phospho-tyrosine antibody from Perkin Elmer).
(§1) The resulting mixture was incubated 1 h at 22° C. to allow the binding of the biotinylated phosphorylated peptide to the streptavidine-XLent and the PT66-Eu-Chelate. Subsequently the amount of phosphorylated substrate peptide was evaluated by measurement of the resonance energy transfer from the PT66-Eu-Chelate to the streptavidine-XLent. Therefore, the fluorescence emissions at 620 nm and 665 nm after excitation at 350 nm was measured in a HTRF reader, e.g. a Rubystar (BMG Labtechnologies, Offenburg, Germany) or a Viewlux (Perkin-Elmer). The ratio of the emissions at 665 nm and at […] was taken as the measure for the amount of phosphorylated substrate peptide. The data were normalised (enzyme reaction without inhibitor=0 (% inhibition, all other assay components but no enzyme=100% inhibition) and IC50 values were calculated by a 4 parameter fit using an inhouse software.

[1] = target: T2, human insuline receptor (Ins-R) (Homo sapiens, UniProt P06213); test: Insulin Receptor HTRF Assay (assay 4); type: biochemical; settings: pIC50 class; 10 μM ATP; read-out: Enzymatic InsR activity (assay 4)
T2 construct: GST-tagged recombinant kinase domain of the human insuline receptor; GST; purchased ProQinase, Freiburg, Germany; host or cells: SF-9 cells
Description: Assay 4: Insulin Receptor HTRF Assay
Inhibitory activity of compounds against the kinase activity of the insulin receptor was quantified employing the Ins-R HTRF assay as described in the following paragraphs.
GST-tagged recombinant kinase domain of the human insuline receptor (Ins-R, purchase from ProQinase, Freiburg, Germany) expressed in SF-9 cells was used as kinase. As substrate for the kinase reaction biotinylated poly-(Glu, Tyr) (Cis biointernational, France) was used.
Ins-R was incubated for 20 min at 22° C. in the presence of different concentrations of test compounds in 5 μl assay buffer [50 mM Hepes/NaOH pH 7, 15 mM MnCl2, 1 mM dithiothreitol, 0.1 μM sodium ortho-vanadate, 0.015% (v/v) PEG20000, 10 μM adenosine-tri-phosphate (ATP), 0.3 μg/ml substrate, 1% (v/v) dimethylsulfoxide]. The concentration of Ins-R was adjusted depending of the activity of the enzyme lot and was chosen appropriate to have the assay in the linear range, typical concentrations were in the range of 10 pg/μl. The reaction was stopped by the addition of 5 μl of a solution of HTRF detection reagents (0.1 μM streptavidine-XLent and 1 nM PT66-Eu-Chelate, an europium-chelate labelled anti-phospho-tyrosine antibody from Perkin Elmer) in an aqueous EDTA-solution (80 mM EDTA, 0.2% (w/v) bovine serum albumin in 50 mM HEPES/NaOH pH 7.0).
as §1, with “substrate” for “substrate peptide”, “substrate.” for “substrate peptide.”, “inhibitor=0%” for “inhibitor=0 (%”

T2 sequence (P06213 1023-1298 limits assumed): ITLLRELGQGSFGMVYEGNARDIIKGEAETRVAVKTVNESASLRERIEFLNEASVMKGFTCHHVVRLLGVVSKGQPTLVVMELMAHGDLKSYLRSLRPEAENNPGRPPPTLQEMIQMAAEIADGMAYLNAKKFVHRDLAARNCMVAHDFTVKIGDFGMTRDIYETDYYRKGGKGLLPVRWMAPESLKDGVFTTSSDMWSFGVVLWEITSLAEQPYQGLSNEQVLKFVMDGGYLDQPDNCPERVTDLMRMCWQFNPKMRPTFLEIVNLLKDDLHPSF
T1 sequence (Q02763 770-1124 limits assumed, species assumed): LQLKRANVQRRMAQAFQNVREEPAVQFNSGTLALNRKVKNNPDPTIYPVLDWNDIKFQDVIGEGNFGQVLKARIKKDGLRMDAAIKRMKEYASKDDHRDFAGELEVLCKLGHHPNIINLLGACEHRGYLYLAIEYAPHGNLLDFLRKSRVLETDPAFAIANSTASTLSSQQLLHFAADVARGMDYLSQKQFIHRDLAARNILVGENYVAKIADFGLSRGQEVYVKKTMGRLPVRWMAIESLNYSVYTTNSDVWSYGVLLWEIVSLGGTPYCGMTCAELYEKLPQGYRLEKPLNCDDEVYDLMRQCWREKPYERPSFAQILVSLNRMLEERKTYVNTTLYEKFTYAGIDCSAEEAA

| Compound | IC50 (Tie-2) | IC50 [1] |
| --- | --- | --- |
| Cn1ncc2c(C#Cc3cccc(NC(=O)c4cccc(C(F)(F)F)c4)c3)cncc21 [Example 1.5, N-[3-(1-Methyl-1H-pyrazolo[3,4-c]pyridin-4-ylethynyl)-phenyl]-3-trifluoromethyl-benzamide] | < 1 µM | ≥ 10 µM |
| Cc1ccc(NC(=O)c2cccc(C(F)(F)F)c2)cc1C#Cc1cncc2c1cnn2C [Example 1.6, N-[4-Methyl-3-(1-methyl-1H-pyrazolo[3,4-c]pyridin-4-ylethynyl)-phenyl]-3-trifluoromethyl-benzamide] | < 1 µM | ≥ 10 µM |
| Cn1ncc2c(C#Cc3cc(NC(=O)c4cccc(C(F)(F)F)c4)ccc3F)cncc21 [Example 1.9, N-[4-Fluoro-3-(1-methyl-1H-pyrazolo[3,4-c]pyridin-4-ylethynyl)-phenyl]-3-trifluoromethyl-benzamide] | < 1 µM | ≥ 10 µM |

Other lines, results leading:

| IC50 (Tie-2) | IC50 [1] | Compound |
| --- | --- | --- |
| < 1 µM |  | Cn1ncc2c(C#Cc3cccc(NC(=O)Nc4ccccc4)c3)cncc21 [Example 2.1, 1-[3-(1-Methyl-1H-pyrazolo[3,4-c]pyridin-4-ylethynyl)-phenyl]-3-phenyl-urea] |
| < 1 µM |  | Cc1ccc(NC(=O)Nc2cccc(C(F)(F)F)c2)cc1C#Cc1cncc2c1cnn2C [Example 2.4, 1-[4-Methyl-3-(1-methyl-1H-pyrazolo[3,4-c]pyridin-4-ylethynyl)-phenyl]-3-(3-trifluoromethyl-phenyl)-urea] |
